Data as given in ChEMBL document CHEMBL4321791, “TASK Channels Pharmacology: New Challenges in Drug Design” (J Med Chem, 2019).
Counter-ions that a name gives are not always drawn.

How the values were obtained:
[1] = biological target: T1, Potassium channel subfamily K member 9 (Homo sapiens, UniProt Q9NPC2); test: Inhibition of human TASK3 expressed in HEK293 cells by Ti+ flux assay; type: cell-based
[2] = biological target: T2, Potassium channel subfamily K member 3 (Homo sapiens, UniProt O14649); test: Inhibition of human TASK1 expressed in African green monkey COS cells by whole cell patch clamp assay; type: cell-based
Target sequence in this assay (O14649 whole entry): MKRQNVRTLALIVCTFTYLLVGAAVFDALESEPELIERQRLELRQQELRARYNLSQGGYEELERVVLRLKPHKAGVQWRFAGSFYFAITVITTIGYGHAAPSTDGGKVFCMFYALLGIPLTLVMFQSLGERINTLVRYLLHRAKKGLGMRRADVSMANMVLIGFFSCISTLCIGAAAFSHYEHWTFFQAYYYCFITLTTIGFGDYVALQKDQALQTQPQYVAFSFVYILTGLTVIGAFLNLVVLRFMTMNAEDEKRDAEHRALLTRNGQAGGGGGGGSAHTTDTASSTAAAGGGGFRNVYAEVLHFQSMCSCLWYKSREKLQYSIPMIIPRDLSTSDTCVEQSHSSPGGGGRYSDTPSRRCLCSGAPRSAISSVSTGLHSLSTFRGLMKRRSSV

[3] = biological target: T2, Potassium channel subfamily K member 3; test: Inhibition of human TASK1 expressed in Xenopus oocytes by whole cell voltage clamp assay; type: cell-based
Target sequence in this assay (O14649 whole entry): as above

[4] = biological target: T1, Potassium channel subfamily K member 9; test: Inhibition of human TASK3 expressed in CHO cells by Inside-out macro-patches based electrophysiology assay; type: cell-based
[5] = biological target: T3, Potassium channel subfamily K member 9 (Rattus norvegicus, UniProt Q9ES08); test: Inhibition of rat TASK3 expressed in (FRT) epithelial cells by chamber based electrophysiology assay; type: cell-based
T3 sequence (Q9ES08 whole entry): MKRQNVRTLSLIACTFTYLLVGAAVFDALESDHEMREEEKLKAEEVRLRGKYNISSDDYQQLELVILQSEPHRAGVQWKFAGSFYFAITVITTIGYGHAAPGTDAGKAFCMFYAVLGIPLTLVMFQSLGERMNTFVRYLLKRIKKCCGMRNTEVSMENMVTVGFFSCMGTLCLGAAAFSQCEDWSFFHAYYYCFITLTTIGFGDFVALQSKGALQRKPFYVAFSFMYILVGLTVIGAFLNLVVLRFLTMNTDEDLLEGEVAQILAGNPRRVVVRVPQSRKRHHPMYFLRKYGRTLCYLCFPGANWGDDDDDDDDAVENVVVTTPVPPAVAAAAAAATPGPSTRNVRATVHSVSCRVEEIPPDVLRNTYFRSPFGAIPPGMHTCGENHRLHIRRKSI

[6] = biological target: T4, Potassium channel subfamily K member 5 (Homo sapiens, UniProt O95279); test: Inhibition of human TASK2 expressed in CHO cells by Inside-out macro-patches based electrophysiology assay; type: cell-based
T4 sequence (O95279 whole entry): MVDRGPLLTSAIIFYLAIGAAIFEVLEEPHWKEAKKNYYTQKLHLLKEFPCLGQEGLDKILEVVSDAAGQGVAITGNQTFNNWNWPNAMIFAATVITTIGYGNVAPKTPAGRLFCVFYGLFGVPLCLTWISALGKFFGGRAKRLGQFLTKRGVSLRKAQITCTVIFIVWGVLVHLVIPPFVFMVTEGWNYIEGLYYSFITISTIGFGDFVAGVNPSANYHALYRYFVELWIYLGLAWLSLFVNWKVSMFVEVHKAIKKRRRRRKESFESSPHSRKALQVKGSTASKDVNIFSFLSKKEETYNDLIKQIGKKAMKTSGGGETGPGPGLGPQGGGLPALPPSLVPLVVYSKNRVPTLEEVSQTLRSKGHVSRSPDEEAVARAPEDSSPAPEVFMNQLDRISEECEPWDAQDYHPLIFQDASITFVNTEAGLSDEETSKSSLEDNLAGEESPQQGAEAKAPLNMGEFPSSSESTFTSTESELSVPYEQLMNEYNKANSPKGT

[7] = biological target: T5, Potassium channel subfamily K member 17 (Homo sapiens, UniProt Q96T54); test: Inhibition of human TASK4 expressed in CHO cells by Inside-out macro-patches based electrophysiology assay; type: cell-based
T5 sequence (Q96T54 whole entry): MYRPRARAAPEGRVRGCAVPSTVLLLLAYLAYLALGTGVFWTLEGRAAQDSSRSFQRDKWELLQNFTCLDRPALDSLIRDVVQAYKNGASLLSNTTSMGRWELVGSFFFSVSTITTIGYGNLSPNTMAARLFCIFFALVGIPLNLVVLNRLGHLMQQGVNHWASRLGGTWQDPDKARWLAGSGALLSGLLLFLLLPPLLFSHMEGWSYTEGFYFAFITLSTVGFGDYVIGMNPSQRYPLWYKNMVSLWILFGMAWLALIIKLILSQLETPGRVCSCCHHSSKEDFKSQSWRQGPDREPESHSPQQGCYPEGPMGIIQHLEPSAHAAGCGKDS

[8] = species: Homo sapiens; test: Selectivity index, ratio of IC50 for Kv1.5 channel (unknown origin) to IC50 for inhibition of human TASK1 expressed in Xenopus oocytes by whole cell voltage clamp assay; type: cell-based
[9] = biological target: T1, Potassium channel subfamily K member 9; test: Inhibition of human TASK3 expressed in Xenopus oocytes by whole cell voltage clamp assay; type: cell-based
[10] = biological target: T2, Potassium channel subfamily K member 3; test: Inhibition of human TASK1 expressed in African green monkey COS cells at 0.6 mM by whole cell patch clamp assay relative to control; type: cell-based
Target sequence in this assay (O14649 whole entry, looked up): as the sequence (O14649 whole entry) above

[11] = biological target: Potassium channel subfamily K member 9 (Rattus norvegicus) (UniProt Q9ES08); test: Inhibition of rat TASK3 expressed in African green monkey COS7 cells at 100 uM by outside-out patches based electrophysiology assay relative to control; type: cell-based
Sequence of Potassium channel subfamily K member 9 (Rattus norvegicus) (Q9ES08 whole entry): as the sequence (Q9ES08 whole entry) above

[12] = biological target: T3, Potassium channel subfamily K member 9; test: Inhibition of rat TASK3 expressed in African green monkey COS7 cells by outside-out patches based electrophysiology assay; type: cell-based
[13] = biological target: T6, Potassium channel subfamily K member 3 (Rattus norvegicus, UniProt O54912); test: Inhibition of rat TASK1 expressed in African green monkey COS7 cells by outside-out patches based electrophysiology assay; type: cell-based
T6 sequence (O54912 whole entry): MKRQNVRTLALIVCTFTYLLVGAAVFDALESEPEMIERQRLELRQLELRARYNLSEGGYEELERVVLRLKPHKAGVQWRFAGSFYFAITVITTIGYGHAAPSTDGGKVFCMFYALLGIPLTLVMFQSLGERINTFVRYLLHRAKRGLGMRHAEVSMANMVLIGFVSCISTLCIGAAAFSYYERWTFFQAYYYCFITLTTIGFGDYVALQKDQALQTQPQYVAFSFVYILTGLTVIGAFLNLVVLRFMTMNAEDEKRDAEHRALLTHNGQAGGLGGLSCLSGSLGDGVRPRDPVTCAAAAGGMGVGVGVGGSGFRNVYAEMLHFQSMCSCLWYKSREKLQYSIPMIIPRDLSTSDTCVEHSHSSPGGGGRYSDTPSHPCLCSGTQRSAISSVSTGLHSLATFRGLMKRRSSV

[14] = biological target: T1, Potassium channel subfamily K member 9; conditions: 1 uM
Description: Inhibition of human TASK3 expressed in Xenopus oocytes at 1 uM by whole cell patch clamp assay relative to control

[15] = biological target: T1, Potassium channel subfamily K member 9; test: Activation of human TASK3 expressed in Xenopus oocytes at 1 mM by whole cell patch clamp assay relative to control; type: cell-based
[16] = biological target: T6, Potassium channel subfamily K member 3; test: Inhibition of rat TASK1 expressed in Xenopus oocytes by whole cell voltage clamp assay; type: cell-based
[17] = biological target: T3, Potassium channel subfamily K member 9; test: Inhibition of rat TASK3 expressed in Xenopus oocytes by whole cell voltage clamp assay; type: cell-based
[18] = biological target: T2, Potassium channel subfamily K member 3; test: Activation of human TASK1 expressed in African green monkey COS cells at 1 mM by whole cell patch clamp assay relative to control; type: cell-based
Target sequence in this assay (O14649 whole entry, looked up): as the sequence (O14649 whole entry) above

[19] = biological target: T2, Potassium channel subfamily K member 3; test: Activation of human TASK1 expressed in African green monkey COS cells at 0.1 to 1 mM by whole cell patch clamp assay relative to control; type: cell-based
Target sequence in this assay (O14649 whole entry, looked up): as the sequence (O14649 whole entry) above

[20] = biological target: T1, Potassium channel subfamily K member 9; test: Inhibition of human TASK3 expressed in HEK293 by whole cell voltage clamp assay; type: cell-based
[21] = biological target: T2, Potassium channel subfamily K member 3; test: Inhibition of human TASK1 by whole cell voltage clamp assay
Target sequence in this assay (O14649 whole entry): as above

[22] = biological target: T1, Potassium channel subfamily K member 9; test: Activation of human TASK3 expressed in human tsA201 cells at 1 uM by whole cell patch clamp assay relative to control; type: cell-based
[23] = biological target: T2, Potassium channel subfamily K member 3; test: Activation of human TASK1 expressed in African green monkey COS cells at 2 mM by whole cell patch clamp assay relative to control; type: cell-based
Target sequence in this assay (O14649 whole entry, looked up): as the sequence (O14649 whole entry) above

[24] = biological target: T2, Potassium channel subfamily K member 3; test: Inhibition of human TASK1 expressed in African green monkey COS7 cells by whole cell patch clamp assay; type: cell-based
Target sequence in this assay (O14649 whole entry): as above

[25] = biological target: Potassium channel subfamily K member 9 (Rattus norvegicus) (UniProt Q9ES08); test: Inhibition of rat TASK3 expressed in African green monkey COS7 cells at 1 mM by outside-out patches based electrophysiology assay relative to control; type: cell-based
[26] = biological target: T1, Potassium channel subfamily K member 9; test: Inhibition of human TASK3 expressed in CHOK1 cells by Ti+ flux assay; type: cell-based

T1 sequence (Q9NPC2 whole entry): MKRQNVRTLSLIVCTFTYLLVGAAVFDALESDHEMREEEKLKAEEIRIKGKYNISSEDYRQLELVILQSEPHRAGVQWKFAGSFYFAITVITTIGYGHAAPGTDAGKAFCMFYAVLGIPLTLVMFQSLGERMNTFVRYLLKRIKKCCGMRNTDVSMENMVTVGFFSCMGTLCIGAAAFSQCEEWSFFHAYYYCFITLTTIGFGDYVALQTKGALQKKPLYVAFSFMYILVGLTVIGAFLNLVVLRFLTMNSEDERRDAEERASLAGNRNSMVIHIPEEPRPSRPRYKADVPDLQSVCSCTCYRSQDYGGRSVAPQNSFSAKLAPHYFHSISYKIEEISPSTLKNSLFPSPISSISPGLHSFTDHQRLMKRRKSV

`CCOC(=O)N1CCC(=C2c3ccc(Cl)cc3CCc3cccnc32)CC1` [LORATADINE] was tested, and the IC50 ([1]; hek293) was 63.4 µM.

`CCCCC/C=C\C/C=C\C/C=C\C/C=C\CCCC(=O)N[C@H](C)CO` [METHANANDAMIDE] was tested, and the IC50 [2] was 0.1 µM.

For `Ic1ccccc1CN[C@@H]1C2CCN(CC2)[C@@H]1C(c1ccccc1)c1ccccc1`, the IC50 [1] was 45.5 µM.

Molecule `COc1ccc(CC(=O)NCc2ccccc2-c2ccccc2C(=O)NCc2ccc(F)cc2F)cc1` has an IC50 [3] of 0.035 µM, an IC50 [4] of 0.07 µM and an IC50 [5] of 0.036 µM. The IC50 [6] was 12 µM, the IC50 [7] was 8.1 µM and the Ratio IC50 [8] was 68. It also gave an IC50 [9] of 0.318 µM.

Work on `CCOC(=O)c1cc(C)n2c1-c1cc(OC)c(OC)cc1CC2` yielded an IC50 [3] of 83.5 µM.

Molecule `COc1cc2c(cc1OC)-c1c(C#N)c(-c3ccccc3)c(C)n1CC2` has an IC50 [9] of 189 µM.

`CCOCC` was tested, and the inhibition [10] was 40%.

Molecule `Cc1cccc(C)c1NC(=O)C1CCCCN1C` (stereo not given) [MEPIVACAINE] has an IC50 [3] of 709 µM.

`CN1CCN(C2Cc3ccccc3Sc3ccc(Cl)cc32)CC1` (stereo not given) [CLOROTEPINE] was tested, and the IC50 ([1]; hek293) was 73.8 µM.

`CC[C@H](C)C(=O)O[C@H]1CCC=C2C=C[C@H](C)[C@H](CC[C@@H]3C[C@@H](O)CC(=O)O3)[C@H]21` [MEVASTATIN] showed an IC50 [1] of 159 µM.

`CC[C@@H]1/C=C/C=C/C[C@H](C)[C@@H](O)[C@](C)(O)C(=O)[C@H](C)[C@@H](O)[C@H](C)C(=O)[C@H](C)[C@@H](O)[C@H](C)/C=C/C(=O)O[C@H]2[C@@H](C)[C@@H](CC1)O[C@@]1(CC[C@@H](C)[C@@H](C[C@H](C)O)O1)[C@@H]2C` showed an IC50 [1] of 47.7 µM.

`CCCCN1CCCCC1C(=O)Nc1c(C)cccc1C` (stereo not given) [BUPIVACAINE] showed an IC50 [3] of 41 µM, an inhibition [11] of 56% and an IC50 [12] of 100 µM. For the same molecule, the IC50 [13] was 41 to 68 µM.

`CCCCNc1ccc(C(=O)OCCN(C)C)cc1` [TETRACAINE] gave an IC50 [3] of 668 µM.

With `COc1ccc(-n2nc(Sc3ccc(C)cc3)c(C)c(C#N)c2=O)cc1` the IC50 [3] was 0.35 µM.

Work on `CC[N+](CC)(CC)CC` yielded an inhibition [14] of 6.1%.

In the case of `[Cl-].[Cs+]`, the Activity [15] is reported as 7.7%.

With `CCN1CC(CCN2CCOCC2)C(c2ccccc2)(c2ccccc2)C1=O` (stereo not given) [DOXAPRAM] the IC50 [5] was 16 µM, the IC50 [16] was 0.41 µM and the IC50 [17] was 37 µM.

`CN(C)c1cc2c(Nc3ccc4c(cnn4Cc4ccccc4)c3)ncnc2cn1` [GW282974X] showed an IC50 [1] of 50.1 µM.

Work on `FC(F)(F)C(Cl)Br` (stereo not given) yielded an Activity [18] of 60%, an Activity [15] of 65.6% and an Activity [19] greater than 60%.

For `CC(C1CC2CCC1C2)n1c(S)nnc1-c1ccco1` (stereo not given), the IC50 [20] was 0.413 µM and the IC50 [21] was 3.2 µM.

`CN(C/C=C/C#CC(C)(C)C)Cc1cccc2ccccc12` was tested, and the Activity [22] was 30%.

With `CCCCS(=O)(=O)Nc1ccccc1C(=O)NC(CC)c1ccc(OC)nc1` (stereo not given) the IC50 [3] was 0.222 µM, the IC50 [21] was 0.22 µM and the IC50 [9] was 0.95 µM.

Molecule `CCCC(=O)C1CCN(c2ncnc3c2CN(C(=O)c2ccc(-c4ccccc4)cc2)CC3)CC1` has an IC50 [5] of 0.01 µM.

With `O=C(NCc1ccccc1-c1ccccc1C(=O)NCCc1ccccn1)OCc1ccccc1` the IC50 [3] was 0.2 µM.

`FC(F)OC(Cl)C(F)(F)F` (stereo not given) gave an Activity [23] of 25%.

Work on `CCCN1CCCC[C@H]1C(=O)Nc1c(C)cccc1C` [ROPIVACAINE] yielded an IC50 [3] of 53 µM.

`CCc1ccc(S(=O)(=O)NC2c3cc(NC(=O)c4cccc(OC)c4)ccc3CC2O)cc1` (stereo not given) showed an IC50 [3] of 1.05 µM.

`CN1CCN(C2Cc3ccccc3Sc3ccc(Cl)cc32)CC1` (racemic) gave an IC50 [1] of 73.8 µM.

Molecule `CCCCC/C=C\C/C=C\C/C=C\C/C=C\CCCC(=O)NCCO` [ANANDAMIDE] has an IC50 [24] of 3 µM.

With `C=C[C@H]1CN2CC[C@H]1C[C@@H]2[C@@H](O)c1ccnc2ccc(OC)cc12` the inhibition [11] was 37%.

Work on `CCOC(=O)c1c(-c2cccs2)c(C)n2c1-c1cc(OC)c(OC)cc1CC2` yielded an IC50 [3] of 96.7 µM.

Work on `CCCN1CCCC[C@@H]1C(=O)Nc1c(C)cccc1C` yielded an IC50 [3] of 51 µM.

Work on `COc1ccc(CC(=O)NCc2ccccc2-c2ccccc2C(=O)NCCc2cccnc2)cc1` yielded an IC50 [3] of 0.6 µM.

Molecule `CCN(CC)CC(=O)Nc1c(C)cccc1C` [LIDOCAINE] has an IC50 [3] of 222 µM and an inhibition [25] of 62%.

Work on `O=C(NCCNc1ccc([N+](=O)[O-])cc1C(F)(F)F)c1ccccc1` yielded a fold change (FC) [26] of 6.

`CCCN(CC)C(CC)C(=O)Nc1c(C)cccc1C` (stereo not given) [ETIDOCAINE] was tested, and the IC50 [3] was 39 µM.

With `CCOC(=O)c1c(-c2cccc(N)c2)c(C)n2c1-c1cc(OC)c(OC)cc1CC2` the IC50 [9] was 268 µM.

With `COCC(=O)O[C@]1(CCN(C)CCCc2nc3ccccc3[nH]2)CCc2cc(F)ccc2[C@@H]1C(C)C` [MIBEFRADIL DIHYDROCHLORIDE] the IC50 ([1]; hek293) was 24.6 µM.
